Data on ten molecules can be found in ChEMBL document CHEMBL1201862, “PubChem BioAssay data set” (2004).

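These data come from cells grown in 96-well plates and exposed to compound for 48 hours at five concentrations. The concentration for 50% growth inhibition is given as GI50.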 Active and inactive are the calls of the source. No stated cut-off is given here; in the data, active = GI50 up to about 1.1 µM and inactive = higher. Some results are limits rather than exact numbers.

Test systems include DLD-1; DMS-114; HOP-18; LXFL 529; M19-MEL; RXF 631; SNB-78; XF498.
Assay in all cases: growth of human tumour cells (NCI), 48 h

As to `Cc1ccc(S(=O)(=O)N/N=C\c2c3ccccc3[n+]([O-])c3ccccc23)cc1`, the GI50 is 2.65 µM (inactive) in the assay on DLD-1; 3.37 µM (inactive) in the assay with DMS-114; 6.76 µM (inactive) in the assay with HOP-18; 0.935 µM (active) with LXFL 529; 7.67 µM (inactive) in the assay with M19-MEL; 3.01 µM (inactive) in the assay on RXF 631. For the same molecule, the GI50 in the assay on SNB-78 is 6.71 µM (inactive).
On to `CCCCC(C(=O)C(=O)NC1C2CC3CC(C2)CC1C3)C(=O)C(C)C` (stereo unspecified), for which the GI50 in the assay on DMS-114, with HOP-18, with LXFL 529, in the assay on M19-MEL, in the assay on RXF 631 and in the assay with SNB-78 was > 100 µM (inactive) throughout. Further, the GI50 in the assay with XF498 was > 100 µM (inactive).
As for `COc1ccccc1NC(=O)C(CC(C(=O)Nc1ccccc1OC)/C(C)=N/Nc1ccc([N+](=O)[O-])cc1[N+](=O)[O-])/C(C)=N/Nc1ccc([N+](=O)[O-])cc1[N+](=O)[O-]` (stereo unspecified), the GI50 in the assay on DLD-1 was 80.4 µM (inactive); in the assay on HOP-18 it was > 95.3 µM (inactive); with LXFL 529, 32.4 µM (inactive); in the assay with M19-MEL, > 100 µM (inactive); in the assay with RXF 631, 40.6 µM (inactive); in the assay with SNB-78 it was > 100 µM (inactive). Moreover, the GI50 with XF498 was 51.6 µM (inactive).
`Cc1cccc2c1C/C(=C1\CCc3c(C)cccc31)C2=O`: the GI50 with DLD-1 is > 100 µM (inactive); with DMS-114, > 100 µM (inactive); with HOP-18 it was 38.3 µM (inactive); in the assay with LXFL 529 it was > 100 µM (inactive); with M19-MEL, > 100 µM (inactive); in the assay with RXF 631, > 100 µM (inactive).
As for `CCOC(=O)C(C)(C)Oc1ccc2c(=O)cc(-c3ccc(Cl)cc3)oc2c1`, the GI50 in the assay on DLD-1, in the assay with DMS-114, with LXFL 529, with M19-MEL, in the assay on RXF 631 and with XF498 was > 100 µM (inactive) each time.
As for `CCOC(=O)N1C/C(=C\c2ccc(N(C)C)cc2)C(=O)/C(=C/c2ccc(N(C)C)cc2)C1`, the GI50 in the assay with DLD-1, in the assay with DMS-114, in the assay with HOP-18, with LXFL 529, in the assay with M19-MEL and in the assay on RXF 631 was > 100 µM (inactive) each time. The GI50 with SNB-78 was > 100 µM (inactive).
In the case of `CC(=O)N(O)Cc1ccccc1`, the GI50 in the assay on DLD-1, in the assay with DMS-114, in the assay with LXFL 529, in the assay with M19-MEL, in the assay on RXF 631 and in the assay with SNB-78 was > 100 µM (inactive) in each case. Also, the GI50 in the assay on XF498 was > 100 µM (inactive).
Take `c1ccc(CN(Cc2ccccn2)Cn2cccn2)nc1`: the GI50 in the assay with DLD-1 was 30.2 µM (inactive); with DMS-114, 22.1 µM (inactive); in the assay on M19-MEL it was 35 µM (inactive); in the assay with RXF 631, 38 µM (inactive); in the assay on SNB-78 it was > 100 µM (inactive); in the assay on XF498 it was 60 µM (inactive).
On to `C=CCNC(=O)N(CCCCC(NC(C)=O)C(=O)NCc1ccccc1)Cc1ccccc1` (stereo unspecified), for which the GI50 in the assay with HOP-18, in the assay with LXFL 529, in the assay on M19-MEL, with RXF 631 and with XF498 was > 100 µM (inactive) throughout.
In the case of `COC(=O)C(Cc1nc2ccccc2nc1O)C(=O)C(=O)Nc1ccc([N+](=O)[O-])cc1[N+](=O)[O-]` (stereo unspecified), the GI50 was 19.5 µM (inactive) in the assay with DLD-1; 16.1 µM (inactive) with DMS-114; 16.8 µM (inactive) in the assay with HOP-18; 12.8 µM (inactive) in the assay on LXFL 529; 16.6 µM (inactive) with M19-MEL; 24.5 µM (inactive) in the assay with RXF 631. The GI50 in the assay on SNB-78 is 38.4 µM (inactive); with XF498, 20.1 µM (inactive).
